# Test results reported in the supplement of paper PMC9265050, “Inhibition of RNA Binding in SND1 Increases the Levels of miR-1-3p and Sensitizes Cancer Cells to Navitoclax” (Cancers, 2022).
# Tested on: SW480
# Assay: drug sensitivity score (DSS, integrated dose-response area); higher = more sensitive (stronger viability reduction); extreme values may be limits of the assay
# Method in brief: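 SW480 cells stably carrying doxycycline-inducible control or SND1-targeting shRNA were treated with 0.1 µg/mL doxycycline for 7 days. Cells were then seeded at 1000 per well into 384-well plates containing 525 commercially available small-molecule inhibitors at five concentrations, and viability was measured with CellTiter-Glo after 72 h. The drug sensitivity score integrates the area under a fitted non-linear dose–response model.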
# [1] = shRNA: SND1 shRNA1 (SND1 silenced)
# [2] = shRNA: SND1 shRNA2 (SND1 silenced)
# [3] = shRNA: control shRNA (non-targeting)
Compound,drug sensitivity score [1],drug sensitivity score [2],drug sensitivity score [3]
CCCNC(=O)Nc1ccc(Oc2ncnc3cc(OC)c(OC)cc23)cc1Cl [KRN-633],0 DSS,0.4 DSS,0.6 DSS
CS(=O)(=O)c1ccc(C2=C(c3ccccc3)C(=O)OC2)cc1 [Rofecoxib],0 DSS,0 DSS,0 DSS
CNC(=O)c1cc(COc2nnc(Nc3ccc(Cl)cc3)c3ccoc23)ccn1 [Telatinib],0 DSS,0 DSS,0 DSS
CCC(C)n1ncn(-c2ccc(N3CCN(c4ccc(OCC5COC(Cn6cncn6)(c6ccc(Cl)cc6Cl)O5)cc4)CC3)cc2)c1=O (centres undefined) [Itraconazole],4.2 DSS,0.2 DSS,1.5 DSS
O=c1[nH]cc(F)c(=O)[nH]1 [Fluorouracil],0.5 DSS,0 DSS,1.1 DSS
Clc1ccc(Nc2nnc(Cc3ccncc3)c3ccccc23)cc1 [Vatalanib],1.8 DSS,6.5 DSS,2 DSS
C/C(=C\c1csc(C)n1)[C@@H]1C[C@@H]2O[C@]2(C)CCC[C@H](C)[C@H](O)[C@@H](C)C(=O)C(C)(C)[C@@H](O)CC(=O)O1 [Patupilone],17.9 DSS,18.3 DSS,18.4 DSS
NC(=O)c1ccc(I)c([N+](=O)[O-])c1 [Iniparib],0.4 DSS,0.1 DSS,0 DSS
COc1cc(Nc2c(C#N)cnc3cc(OCCCN4CCN(C)CC4)c(OC)cc23)c(Cl)cc1Cl [Bosutinib],9.2 DSS,7.3 DSS,8 DSS
CS(=O)(=O)c1ccc(C(=O)Nc2ccc(Cl)c(-c3ccccn3)c2)c(Cl)c1 [Vismodegib],0 DSS,0 DSS,0 DSS
Cc1cc(Nc2cc(CN3CCOCC3)c3nc(C)c(Cc4ccc(Cl)cc4F)n3n2)n[nH]1 [Gandotinib],6.9 DSS,4.1 DSS,7 DSS
COc1cccc2c1c(O)c(C(=O)N(C)c1ccc(C(F)(F)F)cc1)c(=O)n2C [Tasquinimod],3.7 DSS,0 DSS,2.3 DSS
CCc1c2c(nc3ccc(OC(=O)N4CCC(N5CCCCC5)CC4)cc13)-c1cc3c(c(=O)n1C2)COC(=O)[C@]3(O)CC [Irinotecan],3.2 DSS,1.6 DSS,5.5 DSS
NC(=O)NO [Hydroxyurea],0 DSS,0 DSS,0.2 DSS
CO[C@H]1C[C@@H]2CC[C@@H](C)[C@@](O)(O2)C(=O)C(=O)N2CCCC[C@H]2C(=O)O[C@H]([C@H](C)C[C@@H]2CC[C@@H](OP(C)(C)=O)[C@H](OC)C2)CC(=O)[C@H](C)/C=C(\C)[C@@H](O)[C@@H](OC)C(=O)[C@H](C)C[C@H](C)/C=C/C=C/C=C/1C [Ridaforolimus],5.9 DSS,,2.3 DSS
Cn1cc(CNCC2CCN(c3ncc(C(=O)NO)cn3)CC2)c2ccccc21 [Quisinostat],14.9 DSS,14.6 DSS,13.6 DSS
Cc1ccc(NC(=O)c2ccc(CN3CC[C@H](N(C)C)C3)c(C(F)(F)F)c2)cc1Nc1nccc(-c2cncnc2)n1 [Bafetinib],0.3 DSS,0 DSS,0 DSS
NC(=S)N/N=C/c1ncccc1N [Triapine],2.8 DSS,,2.4 DSS

Compound,drug sensitivity score [1],drug sensitivity score [2],drug sensitivity score [3]
C=CC(=O)Nc1cccc(Nc2nc(Nc3ccc(N4CCN(C(C)=O)CC4)cc3OC)ncc2C(F)(F)F)c1 [Rociletinib],7.2 DSS,3.5 DSS,7.5 DSS
CC(=O)Nc1cccc(-n2c(=O)n(C3CC3)c(=O)c3c(Nc4ccc(I)cc4F)n(C)c(=O)c(C)c32)c1 [Trametinib],19.3 DSS,12.7 DSS,8.1 DSS
COc1cc(Br)c(Nc2nc(-c3c(C)nc4ncccn34)cs2)c(Br)c1 [PTC-209],6.7 DSS,2.2 DSS,7.1 DSS
Cc1ccc(NC(=O)c2ccc(CN3CCN(C)CC3)cc2)cc1Nc1nc(-c2cccnc2)cs1 [Masitinib],3.1 DSS,3.4 DSS,4.6 DSS
COc1cc(OC2CCN(C)CC2)ccc1Nc1ncc2c(n1)n(C1CCCC1)c(=O)n2C [AZ 3146],10.9 DSS,10.6 DSS,9.5 DSS
Cc1c(F)cc(C(=O)NC2CC2)cc1-c1ccc(C(=O)NCC(C)(C)C)cn1 [Losmapimod],0 DSS,0 DSS,0 DSS
Cn1c(=O)n(-c2ccc(C(C)(C)C#N)cc2)c2c3cc(-c4cnc5ccccc5c4)ccc3ncc21 [Dactolisib],17.8 DSS,17.8 DSS,11.3 DSS
COCC(=O)NC/C=C/c1ccc2ncnc(Nc3ccc(Oc4ccc(C)nc4)c(C)c3)c2c1,3.4 DSS,,3.2 DSS
COc1cccc2cc(-c3nc([C@H]4CC[C@H](C(=O)O)CC4)n4ncnc(N)c34)[nH]c12 [OSI-027],5.4 DSS,7.1 DSS,2.5 DSS
Nc1nc(Nc2ccc3c(c2)CC[C@@H](N2CCCC2)CC3)nn1-c1cc2c(nn1)-c1ccccc1CCC2 [BGB324],9 DSS,5.9 DSS,9.6 DSS
Nc1cc(F)ccc1NC(=O)/C=C/c1cnn(C/C=C/c2ccccc2)c1 [RGFP966],6.3 DSS,6.3 DSS,6.8 DSS
N#Cc1ccc2[nH]c(O)c(-c3ccc(CN4CCOCC4)cn3)c2c1 [AZD-1080],1.3 DSS,,1.1 DSS
CC[C@]1(O)C[C@@H]2CN(CCc3c([nH]c4ccccc34)[C@@](C(=O)OC)(c3cc4c(cc3OC)N(C)[C@H]3[C@@](O)(C(=O)OC)[C@H](OC(C)=O)[C@]5(CC)C=CCN6CC[C@]43[C@@H]65)C2)C1 [Vinblastine],9.6 DSS,8 DSS,15.4 DSS
NCCNc1ccc(NCCN)c2c1C(=O)c1ccncc1C2=O [Pixantrone],0 DSS,0 DSS,0 DSS
CCOc1cc2ncc(C#N)c(Nc3ccc(OCc4ccccn4)c(Cl)c3)c2cc1NC(=O)/C=C/CN(C)C [Neratinib],3.9 DSS,4.3 DSS,4 DSS
CN[C@@H](C)C(=O)N[C@H]1CN(C(=O)CC(C)C)CC[C@H]2CC[C@@H](C(=O)NC(c3ccccc3)c3ccccc3)N2C1=O [AT-406],0 DSS,0 DSS,0 DSS
Cc1sc2c(c1C)C(c1ccc(Cl)cc1)=N[C@@H](CC(=O)Nc1ccc(O)cc1)c1nnc(C)n1-2 [OTX015],1.9 DSS,0.8 DSS,0.7 DSS
CC(C)C[C@@H](C(=O)N[C@H](C(=O)OC1CCCC1)c1ccccc1)[C@H](O)C(=O)NO [Tosedostat],4.4 DSS,3.2 DSS,3.2 DSS
